Assay results reported in US20110082130A1 (LIGAND PHARMACEUTICALS, INC., priority 2006, published 2011).

target: T1, chimeric human H3 receptor (Homo sapiens, UniProt Q9Y5N1); experiment: Chimeric human H3 receptor GTP binding assay (agonist-stimulated GTP-gamma35S binding, Example 7); assay type: biochemical; details: Table I; P2 membranes of Sf9 cells, 1 μM histamine as agonist, Ki from IC50 by Cheng-Prusoff
T1 construct: made in house; host or cells: Sf9 insect cells (baculovirus); P2 membrane preparation
T1 sequence (Q9Y5N1 with tags, fused parts or gaps): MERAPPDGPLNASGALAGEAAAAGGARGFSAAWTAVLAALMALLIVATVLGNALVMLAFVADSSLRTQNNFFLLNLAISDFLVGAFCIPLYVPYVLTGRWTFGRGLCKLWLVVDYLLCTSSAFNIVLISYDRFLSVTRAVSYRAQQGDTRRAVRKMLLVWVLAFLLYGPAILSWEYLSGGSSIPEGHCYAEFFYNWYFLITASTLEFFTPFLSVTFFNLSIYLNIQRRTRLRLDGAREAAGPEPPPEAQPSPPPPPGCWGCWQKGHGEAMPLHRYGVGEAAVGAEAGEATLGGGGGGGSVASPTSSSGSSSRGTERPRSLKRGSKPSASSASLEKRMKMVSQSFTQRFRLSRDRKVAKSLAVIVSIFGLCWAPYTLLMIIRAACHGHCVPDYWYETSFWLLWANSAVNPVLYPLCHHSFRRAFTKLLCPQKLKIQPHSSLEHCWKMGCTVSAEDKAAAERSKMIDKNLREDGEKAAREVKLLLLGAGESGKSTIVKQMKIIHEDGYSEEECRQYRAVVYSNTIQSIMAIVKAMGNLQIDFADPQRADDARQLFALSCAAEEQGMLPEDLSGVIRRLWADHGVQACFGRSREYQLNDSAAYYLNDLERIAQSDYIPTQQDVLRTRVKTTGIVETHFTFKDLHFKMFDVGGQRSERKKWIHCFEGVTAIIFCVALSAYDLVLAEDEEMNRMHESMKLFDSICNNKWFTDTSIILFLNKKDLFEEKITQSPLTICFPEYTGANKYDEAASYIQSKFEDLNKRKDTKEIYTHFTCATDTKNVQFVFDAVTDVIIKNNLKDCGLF
Procedure, shortened: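 Sf9 membranes co-expressing chimeric human H3 receptor and heterotrimeric G-protein, 35 μg/tube, in pH 7.4 Tris buffer with 10 μM GDP. Test compounds (10^−10–10^−6 M) competed against 1 μM histamine, […] GTP-gamma35S, 60 min at room temperature. Filter-bound radioactivity counted; IC50 converted to Ki by Cheng-Prusoff. Agonism/inverse agonism tested without histamine (EC50).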

Ki, < 1000 nM:
O=C(CN1CCn2c(Br)cnc2C1)N1CCN(C2CCC2)CC1 [Compound 81, 3-bromo-7-[2-(4-cyclobutylpiperazin-1-yl)-2-oxoethyl]-5,6,7,8-tetrahydroimidazo[1,2-a]pyrazine]

same assay, conditions: Table II "Ki", symbol *; assay of Example 7

Ki, < 1000 nM:
COCCCNc1ccc2c(n1)CCN(CC(=O)N1CCN(C3CCC3)CC1)C2 [Compound 664, 6-[2-(4-cyclobutylpiperazin-1-yl)-2-oxoethyl]-N-(3-methoxypropyl)-5,6,7,8-tetrahydro-1,6-naphthyridin-2-amine]
COCC1CCN(c2ccc3c(n2)CCN(CC(=O)N2CCN(C4CCC4)CC2)C3)CC1 [Compound 673, 6-[2-(4-cyclobutylpiperazin-1-yl)-2-oxoethyl]-2-[4-(methoxymethyl)piperidin-1-yl]-5,6,7,8-tetrahydro-1,6-naphthyridine]
Cc1cccc(-c2ccc3c(c2)CCN(CC(=O)N2CCN(C4CCC4)CC2)C3)n1 [Compound 628, 2-[2-(4-cyclobutylpiperazin-1-yl)-2-oxoethyl]-6-(6-methylpyridin-2-yl)-1,2,3,4-tetrahydroisoquinoline]
O=C(CN1CCc2nc(NC3CCCC3)ccc2C1)N1CCN(C2CCC2)CC1 [Compound 656, 6-[2-(4-cyclobutylpiperazin-1-yl)-2-oxoethyl]-N-cyclopentyl-5,6,7,8-tetrahydro-1,6-naphthyridin-2-amine]
C[C@@H]1CN(C(=O)CN2CCc3cc(-c4cncnc4)ccc3C2)CCN1C1CCCCC1 [Compound 617, 2-{2-[(3R)-4-cyclohexyl-3-methylpiperazin-1-yl]-2-oxoethyl}-6-pyrimidin-5-yl-1,2,3,4-tetrahydroisoquinoline]
COc1cc(F)c(-c2ccc3c(c2)CCN(CC(=O)N2CCN(C4CCC4)CC2)C3)cc1F [Compound 506, 2-[2-(4-cyclobutylpiperazin-1-yl)-2-oxoethyl]-6-(2,5-difluoro-4-methoxyphenyl)-1,2,3,4-tetrahydroisoquinoline]
COc1ccc(-c2ccc3c(c2)CCN(CC(=O)N2CCN(C4CCCC4)CC2)C3)cc1F [Compound 503, 2-[2-(4-cyclopentylpiperazin-1-yl)-2-oxoethyl]-6-(3-fluoro-4-methoxyphenyl)-1,2,3,4-tetrahydroisoquinoline]

same assay, conditions: Table II; "*" = Ki in assay of Example 7 less than 1 micromolar

Ki, < 1000 nM:
N#Cc1cnn(-c2ccc3c(c2)CCN(CC(=O)N2CCN(C4CCC4)CC2)C3)c1 [Compound 244, 1-{2-[2-(4-cyclobutylpiperazin-1-yl)-2-oxoethyl]-1,2,3,4-tetrahydroisoquinolin-6-yl}-1H-pyrazole-4-carbonitrile]
CC1CN(C(=O)CN2CCc3nc(C(=O)NC4CCC4)ccc3C2)CCN1C1CCC1 (stereo not drawn) [Compound 126, N-cyclobutyl-6-[2-(4-cyclobutyl-3-methylpiperazin-1-yl)-2-oxoethyl)-5,6,7,8-tetrahydro-1,6-naphthyridine-2-carboxamide]
COCCN(C)c1ccc2c(n1)CCN(CC(=O)N1CCN3C(C)CCC[C@H]3C1)C2 (stereo in doubt) [Compound 181, N-(2-methoxyethyl)-N-methyl-6-[2-(6-methyloctahydro-2H-pyrido[1,2-a]pyrazin-2-yl)-2-oxoethyl]-5,6,7,8-tetrahydro-1,6-naphthyridin-2-amine]
O=C(CN1CCc2cc(Br)ccc2C1)N1CCN(C2CCC2)CC1 [Compound 118, 6-bromo-2-[2-(4-cyclobutylpiperazin-1-yl)-2-oxoethyl]-1,2,3,4-tetrahydroisoquinoline]
O=C(CN1CCc2nc(-c3cncnc3)ccc2C1)N1CCN(C2CCC2)CC1 [Compound 171, 6-[2-(4-cyclobutylpiperazin-1-yl)-2-oxoethyl]-2-pyrimidin-5-yl-5,6,7,8-tetrahydro-1,6-naphthyridine]
O=C(CN1CCc2nc(N3CCOCC3)ncc2C1)N1CCN(C2CCCC2)CC1 [Compound 140, 6-[2-(4-cyclopentylpiperazin-1-yl)-2-oxoethyl]-2-morpholin-4-yl-5,6,7,8-tetrahydropyrido[4,3-d]pyrimidine]
O=C(CN1CCc2cc(OC3CCCC3)ccc2C1)N1CCN(C2CCC2)CC1 [Compound 196, 2-[2-(4-cyclobutylpiperazin-1-yl)-2-oxoethyl]-6-(cyclopentyloxy)-1,2,3,4-tetrahydroisoquinoline]
O=C(CN1CCc2nn(-c3cncc(C4CC4)n3)cc2C1)N1CCN(C2CCC2)CC1 [Compound 272, 5-[2-(4-cyclobutylpiperazin-1-yl)-2-oxoethyl]-2-(6-cyclopropylpyrazin-2-yl)-4,5,6,7-tetrahydro-2H-pyrazolo[4,3-c]pyridine]
CC(=O)c1ccc(-n2ncc3c2CCN(CC(=O)N2CCN(C4CCC4)CC2)C3)cc1 [Compound 92, 1-(4-{5-[2-(4-cyclobutylpiperazin-1-yl)-2-oxoethyl]-4,5,6,7-tetrahydro-1H-pyrazolo[4,3-c]pyridin-1-yl}phenyl)ethanone]
Cc1ccc(-n2cc3c(n2)CCN(CC(=O)N2CCN(C4CCC4)CC2)C3)nn1 [Compound 200, 5-[2-(4-cyclobutylpiperazin-1-yl)-2-oxoethyl]-2-(6-methylpyridazin-3-yl)-4,5,6,7-tetrahydro-2H-pyrazolo[4,3-c]pyridine]
CC1CCC[C@H]2CN(C(=O)CN3CCc4nc(-c5cncnc5)ccc4C3)CCN12 (stereo in doubt) [Compound 177, 6-[2-(6-methyloctahydro-2H-pyrido[1,2-a]pyrazin-2-yl)-2-oxoethyl]-2-pyrimidin-5-yl-5,6,7,8-tetrahydro-1,6-naphthyridine]
O=C(CN1CCc2c(cnn2-c2cccc(F)c2)C1)N1CCN(C2CCC2)CC1 [Compound 235, 5-[2-(4-cyclobutylpiperazin-1-yl)-2-oxoethyl]-1-(3-fluorophenyl)-4,5,6,7-tetrahydro-1H-pyrazolo[4,3-c]pyridine]
O=C(CN1CCc2nc(-n3cccc3)ccc2C1)N1CCN(C2CCC2)CC1 [Compound 227, 6-[2-(4-cyclobutylpiperazin-1-yl)-2-oxoethyl]-2-(1H-pyrrol-1-yl)-5,6,7,8-tetrahydro-1,6-naphthyridine]
CC(C)[C@@H]1CN(C(=O)CN2CCc3cc(-c4cncnc4)ccc3C2)CCN1C1CCC1 [Compound 189, 2-{2-[(3R)-4-cyclobutyl-3-isopropylpiperazin-1-yl]-2-oxoethyl}-6-pyrimidin-5-yl-1,2,3,4-tetrahydroisoquinoline]
O=C(CN1CCc2nc(N3CCCC3)ccc2C1)N1CCN(C2CCC2)CC1 [Compound 176, 6-[2-(4-cyclobutylpiperazin-1-yl)-2-oxoethyl]-2-pyrrolidin-1-yl-5,6,7,8-tetrahydro-1,6-naphthyridine]
O=C(CN1CCc2nc(N3CCC(F)(F)CC3)ccc2C1)N1CCN(C2CCC2)CC1 [Compound 183, 6-[2-(4-cyclobutylpiperazin-1-yl)-2-oxoethyl]-2-(4,4-difluoropiperidin-1-yl)-5,6,7,8-tetrahydro-1,6-naphthyridine]

same assay, conditions: assay of Example 7; "*" in Ki of Table II

Ki, < 1000 nM:
CN(C)c1ccc(-c2nc3c(s2)CN(CC(=O)N2CCN(C4CCC4)CC2)CC3)cc1 [Compound 331, 4-{5-[2-(4-cyclobutylpiperazin-1-yl)-2-oxoethyl]-4,5,6,7-tetrahydro[1,3]thiazolo [5,4-c]pyridin-2-yl}-N,N-dimethylaniline]
O=C(CN1CCc2nc(-c3ccc(Oc4ccccc4)cc3)sc2C1)N1CCN(C2CCC2)CC1 [Compound 318, 5-[2-(4-cyclobutylpiperazin-1-yl)-2-oxoethyl]-2-(4-phenoxyphenyl)-4,5,6,7-tetrahydro[1,3]thiazolo [5,4-c]pyridine]
COCc1ncc2c(n1)CCN(CC(=O)N1CCN(C3CCC3)CC1)C2 [Compound 286, 6-[2-(4-cyclobutylpiperazin-1-yl)-2-oxoethyl]-2-(methoxymethyl)-5,6,7,8-tetrahydropyrido[4,3-d]pyrimidine]
O=C(CN1CCc2cc(-c3ccc4c(c3)OCO4)ccc2C1)N1CCN(C2CCCC2)CC1 [Compound 378, 6-(1,3-benzodioxol-5-yl)-2-[2-(4-cyclopentylpiperazin-1-yl)-2-oxoethyl]-1,2,3,4-tetrahydroisoquinoline]
CSc1cccc(-c2nc3c(s2)CN(CC(=O)N2CCN(C4CCC4)CC2)CC3)c1 [Compound 320, 5-[2-(4-cyclobutylpiperazin-1-yl)-2-oxoethyl]-2-[3-(methylthio)phenyl]-4,5,6,7-tetrahydro[1,3]thiazolo [5,4-c]pyridine]
CCCOc1ccc(-c2nc3c(s2)CN(CC(=O)N2CCN(C4CCC4)CC2)CC3)cc1 [Compound 334, 5-[2-(4-cyclobutylpiperazin-1-yl)-2-oxoethyl]-2-(4-propoxyphenyl)-4,5,6,7-tetrahydro[1,3]thiazolo [5,4-c]pyridine]
COc1ccc(-c2nc3c(s2)CN(CC(=O)N2CCN(C4CCC4)CC2)CC3)cc1 [Compound 327, 5-[2-(4-cyclobutylpiperazin-1-yl)-2-oxoethyl]-2-(4-methoxyphenyl)-4,5,6,7-tetrahydro[1,3]thiazolo [5,4-c]pyridine]
O=C(CN1CCc2nc(-c3ccccc3)sc2C1)N1CCN(C2CCC2)CC1 [Compound 294, 5-[2-(4-cyclobutylpiperazin-1-yl)-2-oxoethyl]-2-phenyl-4,5,6,7-tetrahydro[1,3]thiazolo [5,4-c]pyridine]
CS(=O)(=O)c1ccc(-c2ccc3c(c2)CCN(CC(=O)N2CCN(C4CCCC4)CC2)C3)cc1 [Compound 390, 2-[2-(4-cyclopentylpiperazin-1-yl)-2-oxoethyl]-6-[4-(methylsulfonyl)phenyl]-1,2,3,4-tetrahydroisoquinoline]
